Consider 4 molecules from PMC8406418 (Journal of Natural Products, 2021).

The target in experiment [1] is T1, mouse KOR (Mus musculus, UniProt P33534).
Experiment [2] deals with human T-cell proliferation. Also noted: method as in PMID 23840803. The following applies: cited from earlier work.
In experiment [3] the target is T1, mouse KOR. The format is cell-based. Also noted: expressed in transfected cells; host or cells: HEK293 (transient, jetPRIME).
For experiment [4], the target named is T1, mouse KOR. As to the kind of experiment: cell-based. The following applies: for Emax: HEK293, read-out: Emax cAMP inhibition.
Experiment [5] addresses T1, mouse KOR. As to the kind of experiment: biochemical.
Experiment [6] has as its system untransfected HEK 293 cells. It is filed as cell-based.

Where “and” joins values, the source holds several entries; their conditions need not be identical. Equal values may be shown once. Read-outs that look alike come from different tables or passages of the source. Where a SMILES comes first, the peptide text is derived from it. Bridges are numbered along the chain shown (N, C = ends).

T1 sequence (P33534 whole entry): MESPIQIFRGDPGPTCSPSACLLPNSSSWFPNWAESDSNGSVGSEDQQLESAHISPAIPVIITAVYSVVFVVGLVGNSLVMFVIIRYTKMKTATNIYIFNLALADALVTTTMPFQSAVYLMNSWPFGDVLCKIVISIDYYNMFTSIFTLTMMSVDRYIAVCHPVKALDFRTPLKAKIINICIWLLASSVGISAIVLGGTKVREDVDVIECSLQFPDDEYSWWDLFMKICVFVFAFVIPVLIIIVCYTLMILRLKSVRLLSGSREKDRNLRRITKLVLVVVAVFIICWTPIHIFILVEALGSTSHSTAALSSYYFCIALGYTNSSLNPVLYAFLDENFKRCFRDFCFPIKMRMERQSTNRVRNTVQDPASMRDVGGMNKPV

Consider `CC[C@H]1CN2CCc3cc(OC)c(OC)cc3[C@@H]2C[C@@H]1C[C@H]1NCCc2cc(OC)c(OC)cc21` [Emetine], for which the “displacement of [3H]-DPN” value on mouse KOR [1] (up to concentrations of 10 μM, 1 nM [3H]-DPN) is recorded as “did not displace the radioligand”.
For orientation: EC50 means the concentration that produces a half-maximal response. As a reminder, the Emax is the size of the effect at its maximum, as opposed to the concentration needed. A word on the Ki: it is the dissociation constant of the complex between target and ligand, obtained from inhibition or displacement. For `CC(C)C[C@@H]1NC(=O)CNC(=O)[C@H](CC(N)=O)NC(=O)[C@H](CCCNC(=N)N)NC(=O)[C@H]([C@@H](C)O)NC(=O)[C@@H]2CSSC[C@@H]3NC(=O)[C@H]([C@@H](C)O)NC(=O)CNC(=O)CNC(=O)[C@H](C(C)C)NC(=O)[C@@H]4CSSC[C@H](NC(=O)[C@H](CCCCN)NC(=O)[C@H](CSSC[C@H](NC(=O)[C@H](C(C)C)NC(=O)[C@@H]5CCCN5C1=O)C(=O)NCC(=O)N[C@@H](CCC(=O)O)C(=O)N[C@@H]([C@@H](C)O)C(=O)N4)NC(=O)CNC(=O)[C@@H]1CCCN1C(=O)[C@H]([C@@H](C)O)NC(=O)[C@H](CC(N)=O)NC3=O)C(=O)N[C@@H](CO)C(=O)N[C@@H](Cc1c[nH]c3ccccc13)C(=O)N1CCC[C@H]1C(=O)N[C@@H](C(C)C)C(=O)N2` [T20K, [T20K]kalata B1] (cyclo(CGETCVGGTCNTPGCKCSWPVCTRNGLPV); disulfide 1-15, 5-17, 10-22), in experiment [2], the “potency to suppress lymphocyte proliferation” value is 2000 to 4000 nM. At mouse KOR [3], the “β-arrestin-2 recruitment (interaction of β-arrestin-2 and KOR)” value is “no interaction of β-arrestin-2 and KOR was detected”. In addition, at mouse KOR [4], the “increase in basal cAMP production” value is roughly 50%, the “increase in efficacy of dyn A1–13 (cAMP)” value was 30–60% and the maximum response (Emax) turned out to be 105 ± 5%. Moreover, on mouse KOR [4] (EC50 cAMP inhibition), the EC50 was 24000 nM and ~24000 nM. For the same molecule, the Ki on mouse KOR [5] is 2000 nM and ~2000 nM.
On to `CC[C@H](C)[C@@H]1NC(=O)[C@H](C(C)C)NC(=O)[C@H]([C@@H](C)O)NC(=O)[C@H](CO)NC(=O)[C@H](Cc2ccccc2)NC(=O)[C@@H]2CSSC[C@@H]3NC(=O)[C@H](C(C)C)NC(=O)[C@H](CCCCN)NC(=O)[C@H](CC(N)=O)NC(=O)[C@H](CCCCN)NC(=O)[C@@H]4CSSC[C@H](NC(=O)[C@H](CO)NC(=O)[C@H](CCC(=O)O)NC(=O)CNC(=O)[C@H](CSSC[C@H](NC(=O)CNC1=O)C(=O)N[C@@H](CO)C(=O)N4)NC(=O)[C@@H]1CCCN1C(=O)[C@H]([C@@H](C)CC)NC(=O)[C@H](C(C)C)NC(=O)CNC(=O)[C@H](CC(N)=O)NC(=O)[C@H](CCCNC(=N)N)NC(=O)[C@H](Cc1ccc(O)cc1)NC3=O)C(=O)N[C@@H](C(C)C)C(=O)N[C@@H](Cc1ccccc1)C(=O)N[C@@H]([C@@H](C)CC)C(=O)N1CCC[C@H]1C(=O)N2` [caripe 10] (cyclo(CFSTVIGCSCKNKVCYRNGVIPCGESCVFIP); disulfide 1-15, 8-23, 10-27), for which the “displacement of [3H]-DPN by cyclotides” value on mouse KOR [1] is “strongest effect”. At mouse KOR [4] (EC50 cAMP inhibition), the EC50 was 60200 nM and ~60000 nM. Further, at mouse KOR [4], the maximal effect (Emax) was found to be 144 ± 12%. Further, the inhibitory constant (Ki) at mouse KOR [5] stood at 1200 ± 300 nM.
Consider `CC[C@H](C)[C@H](NC(=O)[C@H](CCCNC(=N)N)NC(=O)[C@H](CCCNC(=N)N)NC(=O)[C@H](CC(C)C)NC(=O)[C@H](Cc1ccccc1)NC(=O)CNC(=O)CNC(=O)[C@@H](N)Cc1ccc(O)cc1)C(=O)N[C@@H](CCCNC(=N)N)C(=O)N1CCC[C@H]1C(=O)N[C@@H](CCCCN)C(=O)N[C@@H](CC(C)C)C(=O)N[C@@H](CCCCN)C(N)=O` [dyn A1–13, Dyn A1–13 amide, reference compound], for which the inhibition constant Ki on mouse KOR [1] (read-out: Ki ± SD) was 0.4 nM and 0.3 nM. Further, the “changes in cAMP levels” value in experiment [6] was “no changes in cAMP levels were observed”. Further, the EC50 stood at 159 ± 92.4 nM at mouse KOR [3] (read-out: EC50 β-arrestin-2 recruitment) and 8.8 ± 2.4 nM at mouse KOR [4] (read-out: cAMP inhibition EC50 ± SD). Also, the “cAMP inhibition Emax ± SD” value at mouse KOR [4] is 115.5 ± 20.0% and 122.0 ± 21.6% and 133.2 ± 41.9 % and 160.3 ± 47.4 % and 158.8 ± 54.0 %.
